For orientation: bioavailability means dose-corrected exposure relative to a reference, in per cent. A lower bioavailability goes with little systemic uptake.

This note sets out measurements from ChEMBL document CHEMBL1833811, “Design, synthesis and structure-activity relationship of novel [3.3.1] bicyclic sulfonamide-pyrazoles as potent γ-secretase inhibitors” (Bioorg Med Chem Lett, 2011).

Series [1] in a line: Ratio of drug uptake in brain to plasma of wild type FVB mouse. It is filed as ADME. The following applies: brain and plasma, read-out: BPR.
Series [2] in a line: Oral bioavailability in wild type FVB mouse. In kind it is ADME, organism-based. The following applies: in vivo.

In the case of `O=S(=O)(c1ccc(C(F)(F)F)nc1)N1C2Cc3[nH]ncc3C1CC(c1ccc(F)cc1)C2` (single isomer, unassigned), the Kp in series [1] was determined as 0.3.

Consider `Cc1noc(C2CC3Cc4[nH]ncc4C(C2)N3S(=O)(=O)c2ccc(Cl)cc2)n1` (single isomer, unassigned), for which the Kp in series [1] was found to be 0.08. For the compound `O=S(=O)(c1ccc(Cl)cc1)N1C2CCCC1c1cn[nH]c1C2` (single isomer, unassigned), the bioavailability in series [2] amounted to 2%.
